pEC50, pIC50: −log10 of the molar value. Read-outs that look alike come from different tables or passages of the source.
Columns and labels:
[1] = tested on: 229E human corona virus (hCoV); assay: 229E Cellular Assay (MRC5), 229E live virus assay, ATPlite readout; format: cell-based, hCoV-229E
SARS-CoV-2 3CL-protease = SARS-CoV-2 3CL-protease (Severe acute respiratory syndrome coronavirus 2, UniProt P0DTD1); assay: biochemical
[2] = recombinant 3CL-protease 10 nM, substrate 40 μM, 30 min preincubation at RT, read-out: FRET IC50
[3] = Human coronavirus 229E, MRC5, 144 h; read-out: EC50 (229E)

| Structure (SMILES) | pEC50 ([1]; Human coronavirus 229E, MRC5, 144 h, read-out: EC50 (229E)) | pIC50 (SARS-CoV-2 3CL-protease) | pEC50 ([1]; Human coronavirus 229E, MRC5, 144 h; MRC-5 cells, hCoV-229E MOI 0.05, 6 days at 34° C., ATPlite; read-out: EC50 (229E)) | pIC50 (SARS-CoV-2 3CL-protease; [2]) | pEC50 [1, 3] |
| --- | --- | --- | --- | --- | --- |
| CC(C)C[C@H]1C(=O)N[C@H](C#N)C[C@@H]2C[C@@H](C/C=C/C[C@H](NC(=O)OC(C)(C)C)C(=O)N1C)NC2=O [Example 1] | < 6.00 | 6.00 to 7.00 | – | – | – |
| CC(C)C[C@H]1C(=O)N[C@H](C#N)C[C@@H]2C[C@@H](CCCC[C@H](NC(=O)OC(C)(C)C)C(=O)N1C)NC2=O [Example 2] | – | – | < 6.00 | > 7.00 | – |
| CC(C)C[C@H]1C(=O)N[C@H](C#N)C[C@@H]2C[C@@H](CCCC[C@H](NC(=O)c3ccccc3Cl)C(=O)N1C)NC2=O [Example 3] | – | – | – | > 7.00 | 6.00 to 7.00 |
| CC(C)C[C@H]1C(=O)N[C@H](C#N)C[C@@H]2C[C@@H](CCCC[C@H](NC(=O)c3ccccn3)C(=O)N1C)NC2=O [Example 4] | – | – | – | > 7.00 | < 6.00 |
| CC(C)C[C@H]1C(=O)N[C@H](C#N)C[C@@H]2C[C@@H](CCCC[C@H](NC(=O)c3cc4c(F)cc(F)c(F)c4[nH]3)C(=O)N1C)NC2=O [Example 5] | – | – | – | 6.00 to 7.00 | < 6.00 |
| CC(C)C[C@H]1C(=O)N[C@H](C#N)C[C@@H]2C[C@@H](CCCCc3nc(-c4ccccc4Cl)oc3N1C)NC2=O [Example 6] | – | – | – | 6.00 to 7.00 | 6.00 to 7.00 |
